Patent publication US20200046720A1, “ENGINEERED BIOCOMPATIBLE ANTIBIOTIC PARTICLES AND THEIR USE AGAINST URINARY TRACT INFECTION” (The University of North Carolina at Chapel Hill, priority 2016, published 2020)

How the values were obtained:
[1] = system: E. coli UT189; assay: Tissue culture-based microbial inhibition assay, intracellular E. coli infection of bladder epithelial cells; assay type: cell-based, Escherichia coli; conditions: cultured bladder epithelial cells
Description: FIGS. 3A-D show PRINT-Levofloxacin provides prolonged protection against intracellular E. coli infection. UROTSA bladder epithelial cell monolayers were incubated with media, free levofloxacin (FREE LEVO), blank PRINT particles (BLANK PRINT), or a formulation of PRINT encapsulated levofloxacin (PRINT-LEVO) for 1 hour. Each treatment was removed, the cells were washed, and the cells were immediately infected with E. coli UT189 (FIG. 3A), 8 hours later (FIG. 3B), or 18 hours later (FIG. 3C). After 1 hour of infection with E. coli, the medium was replaced with medium containing gentamicin to eliminate extracellular bacteria. Viable bacteria in the bladder epithelial cells were enumerated 24 hours later. The formulations and associated sizes and charges are shown for reference (FIG. 3D). Tissue culture-based microbial inhibition assays-Bladder epithelial cell lines 5637 and UROTSA have been previously described. Tissue culture cells were growth in RPMI 1640 media to 80% confluence and lifted using trypsin-EDTA (Sigma-Aldrich). Twenty four well plates (Genesee Scientific) were seeded with 5637 cells and grown for 2 days at 37° C., 5% CO2 prior to infections. Where appropriate to the assay conditions, unencapsulated (“free”) levofloxacin was added to the wells one hour prior to infection and at the same concentration as wells treated with PRINT-levofloxacin particles. […]

[2] = system: E. coli UT189; assay: Rat spinal cord injury UTI infection model; assay type: in vivo, Escherichia coli; conditions: female SCI rats, single intracystic dose, drained after 1 hour, infected 8 hours later, bladder and kidney
Description: FIGS. 6A-C show PRINT-LEVO provides sustained protection against E. coli UTI in the SCI rat. Female SCI rats were treated by transurethral catheterization and instillation of a volume equivalent to their previously determined residual urine volume containing PBS, PBS with free levofloxacin (5 μg/ml), PRINT-LEVO (formula D5), or BLANK PRINT particles (wt/vol equivalent to PRINT-LEVO). After 1 hour of treatment, all animals had their bladder creded to remove each treatment. The animals were infected with E. coli at increasing time intervals following the administration and drainage of the test or control agents from the bladder: 4 hours (FIG. 6A), 8 hours (FIG. 6B), or 18 hours (FIG. 6C). Bacteria were counted in the bladders and kidneys 24 hours after infection with E. coli by tissue homogenization and plating of dilutions on solid agar medium. Horizontal bars indicate the geometric means.
As described previously, female Sprague-Dawley rats (Harlan; 175-200 gm) underwent controlled surgical T10 spinal cord transection to model spinal cord injury and produce a neurogenic bladder phenotype. […] Due to the spinal cord injury and subsequent neurogenic bladder phenotypes, animals were routinely monitored and creded to relieve urinary retention each 12 hours. […]

Structure (SMILES): C[C@H]1COc2c(N3CCN(C)CC3)c(F)cc3c(=O)c(C(=O)O)cn1c23 [free levofloxacin, levofloxacin]
- time to loss of significant effectiveness after a single dose [1]: ≤ 1 h
- protection against E. coli infection (animals infection-free), 8 hour delay [2]: 12.5%
